From patent US20040058876A1, “Secondary binding site of dipeptidyl peptidase IV (DP IV)” (priority 2002, published 2004)
pKi: −log10 of the molar value. Where two headings read alike, the source gives them in different places. Residues, ends and D or L forms follow the SMILES beside them.

Legend:
[1] = system: DP IV; experiment: Determination of the half-life (t1/2) of DP IV-catalyzed peptide truncation by MALDI-TOF MS; settings: truncation by DP IV
Protocol: (§1) The degradation fate of peptides was measured by monitoring the signal intensity of the pseudomolecular ion peaks of parent peptides and N-terminal shorted peptides versus time when incubated with 40 mU procine DP IV, recombinant human DP IV or serum DP IV activity. […] As control served the preincubation of DP IV with 0.01M Tris-buffer (Sigma-Aldrich, Deisenhofen, Germany). The mass spectrometer employed was a Hewlett-Packard G2025 model with a linear time of flight analyzer; samples (4 μL) were mixed 1:1 v/v with matrix (44 mg diammonium-hydrogen-citrate and 30 mg 2′,6′-dihydroxyacetophenone in 1 ml aqueous solution containing 50% acetonitrile and 0.05% trifluoroacetic acid; Sigma-Aldrich), transferred to a probe tip and immediately evaporated using the Hewlett-Packard G2024A (Hewlett-Packard, Waldbronn, Germany) sample preparation vacuum chamber. 250 single laser-shot spectra were accumulated. This method of monitoring biodegradation has been validated and allows the general comparison of half-degradation times (t1/2) under various conditions.
(§2) The t1/2-calculation followed this procedure:
(§3) The height of the substrate peak was measured and set as 100% at time=0. During the reaction course the sum of substrate and product peak height were set as 100% and the percentage of the remaining substrate peak (also expressed as relative concentration) was determined. Diagrammed relative substrate concentration versus time t1/2 can be calculated based on first order exponential decay reaction course. [formula]

[2] = as above
Protocol: as §1, §2, §3

[3] = biological target: T1, rec. human DP IV (Homo sapiens, UniProt P27487); experiment: MALDI-TOF approach: Ki of TFTSDY on DP IV-catalyzed peptide truncation; assay type: biochemical; settings: K1, inhibitory effect on DP IV-catalyzed peptide truncation
T1 construct: His6 (N); made in house; host or cells: Pichia pastoris X-33 (vector pPICαC, secreted into the medium)
T1 sequence (P27487 37-766): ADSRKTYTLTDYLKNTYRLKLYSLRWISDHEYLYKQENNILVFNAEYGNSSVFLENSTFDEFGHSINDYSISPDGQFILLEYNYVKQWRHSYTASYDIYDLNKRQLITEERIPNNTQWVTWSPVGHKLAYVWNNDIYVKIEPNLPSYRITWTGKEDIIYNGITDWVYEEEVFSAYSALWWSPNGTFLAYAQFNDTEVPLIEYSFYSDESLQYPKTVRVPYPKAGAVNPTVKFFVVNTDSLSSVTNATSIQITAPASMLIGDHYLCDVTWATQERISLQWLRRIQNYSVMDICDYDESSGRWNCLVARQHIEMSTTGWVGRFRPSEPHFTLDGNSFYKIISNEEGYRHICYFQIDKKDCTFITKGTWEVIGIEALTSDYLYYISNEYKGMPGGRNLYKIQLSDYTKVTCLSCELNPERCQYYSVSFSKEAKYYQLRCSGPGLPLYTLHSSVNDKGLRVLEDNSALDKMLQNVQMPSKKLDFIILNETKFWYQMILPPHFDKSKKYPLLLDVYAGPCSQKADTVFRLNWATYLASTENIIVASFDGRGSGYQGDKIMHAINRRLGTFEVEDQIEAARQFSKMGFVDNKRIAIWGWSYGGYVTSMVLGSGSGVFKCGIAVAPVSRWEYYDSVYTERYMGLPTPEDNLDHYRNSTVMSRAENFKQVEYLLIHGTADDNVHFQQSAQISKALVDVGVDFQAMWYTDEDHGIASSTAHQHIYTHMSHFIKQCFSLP
Protocol: (§4) 250 single laser-shot spectra were accumulated.
(§5) In order to investigate directly the influence of TFTSDY on the DP IV-catalyzed peptide hydrolysis the MALDI-TOF assay was used.
(§6) As described before (determination of t1/2) DP IV and TFTSDY were preincubated and the reaction was started by adding the enzyme/hexapeptide mixture to substrate/buffer mix. The control reaction mixture consisted of buffer, enzyme and substrate. From the curves of the first order exponential the initial rate (v1) for the control and the reversible inhibited reaction was calculated.
(§7) For the uninfluenced reaction the Michaelis-Menten-equation was used.
(§8) Vi was calculated from plotting the relative substrate concentration versus time.
(§9) Km is given, also the substrate concentration. [formula]
(§10) For the reversible inhibited reaction the following reaction was used to calculate Kl: [formula]

[4] = biological target: T2, porcine DP IV (Sus scrofa, UniProt P22411); experiment: as above; assay type: biochemical; settings: K1, inhibitory effect on DP IV-catalyzed peptide truncation
T2 construct: purified DP IV from human, from porcine kidney, of recombinant human DP IV; from tissue; host or cells: porcine kidney
T2 sequence (P22411 whole entry, the tested form may be a part): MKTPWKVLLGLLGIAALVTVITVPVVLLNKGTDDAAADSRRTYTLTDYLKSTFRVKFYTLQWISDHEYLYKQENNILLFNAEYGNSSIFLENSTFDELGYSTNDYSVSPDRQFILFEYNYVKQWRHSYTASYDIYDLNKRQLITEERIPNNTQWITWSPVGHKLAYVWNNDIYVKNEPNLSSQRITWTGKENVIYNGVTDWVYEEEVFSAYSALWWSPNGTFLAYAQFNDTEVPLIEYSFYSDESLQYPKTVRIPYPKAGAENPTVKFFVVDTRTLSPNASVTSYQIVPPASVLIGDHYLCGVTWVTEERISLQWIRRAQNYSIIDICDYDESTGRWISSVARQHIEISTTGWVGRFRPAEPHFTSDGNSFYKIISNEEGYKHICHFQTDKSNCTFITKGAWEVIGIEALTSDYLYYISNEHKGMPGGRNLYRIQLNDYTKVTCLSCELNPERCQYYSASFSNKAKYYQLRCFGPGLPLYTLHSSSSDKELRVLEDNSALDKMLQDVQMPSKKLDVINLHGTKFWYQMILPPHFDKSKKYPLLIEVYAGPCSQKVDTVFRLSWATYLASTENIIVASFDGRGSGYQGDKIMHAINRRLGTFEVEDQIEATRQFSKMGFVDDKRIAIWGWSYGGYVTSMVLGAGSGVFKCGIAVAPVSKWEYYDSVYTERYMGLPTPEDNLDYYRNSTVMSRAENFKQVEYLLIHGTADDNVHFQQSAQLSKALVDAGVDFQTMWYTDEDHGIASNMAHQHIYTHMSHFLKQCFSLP
Protocol: as §4, §5, §6, §7, §8, §9, §10

[5] = system: DP IV; experiment: Peptide truncation by DP IV after preincubation with TFTSDY (MALDI-TOF); assay type: biochemical
Protocol: as §4, §5, §6

[6] = biological target: T3, mu 15: recombinant human DP IV, mutation R560A (Homo sapiens, UniProt P27487, R560A); experiment: Determination of Ki in competition to standard substrate GP-4NA; assay type: biochemical; settings: mu 15 DP IV, competition to GP-4NA
T3 construct: His6 (N); made in house; host or cells: Pichia pastoris X-33 (vector pPICαC, secreted into the medium)
T3 sequence (P27487 37-766 R560A): as the sequence (P27487 37-766) above, with R524A counted along it
Protocol: (§11) In order to measure the inhibition constant Ki a photometric assay was used The peptides were measured as competitors of the standard substrate GP-4-Nitroanilide. Three different substrate concentrations (0.4 mM to 0.05 mM) were combined with 8 different competitor concentrations (0.5 mM to 2 μM). […] Experiments were carried out under standard conditions: 30° C. in pH 7.6 40 mM HEPES (Sigma-Aldrich) buffer. Nitroaniline production was monitored using a HTS 7000+ microplate reader (PerkinElmer, Überlingen, Germany).
(§12) For a reversible competitive inhibition is to assumed: [formula]

[7] = biological target: T4, mu 16: recombinant human DP IV, mutation W629A (Homo sapiens, UniProt P27487, W629A); experiment: as above; assay type: biochemical; settings: mu 16 DP IV, competition to GP-4NA
T4 construct: His6 (N); made in house; host or cells: Pichia pastoris X-33 (vector pPICαC, secreted into the medium)
T4 sequence (P27487 37-766 W629A): as the sequence (P27487 37-766) above, with W593A counted along it
Protocol: as §11, §12

[8] = biological target: T5, rh wt: recombinant human DP IV, wild type (Homo sapiens, UniProt P27487); experiment: as above; assay type: biochemical; settings: competition to GP-4NA
T5 construct: His6 (N); made in house; host or cells: Pichia pastoris X-33 (vector pPICαC, secreted into the medium)
T5 sequence (P27487 37-766): as the sequence (P27487 37-766) above
Protocol: as §11, §12

C[C@@H](O)[C@H](NC(=O)CNC(=O)[C@H](CCC(=O)O)NC(=O)CNC(=O)[C@@H](N)Cc1ccc(O)cc1)C(=O)N[C@@H](Cc1ccccc1)C(=O)O [G^2GIP1-6] (H-YGEGTF-OH)
half-life [1]: no degradation

CC[C@H](C)[C@H](NC(=O)[C@H](CO)NC(=O)[C@H](Cc1ccc(O)cc1)NC(=O)[C@H](CC(=O)O)NC(=O)[C@H](CO)NC(=O)[C@@H](NC(=O)[C@H](Cc1ccccc1)NC(=O)[C@@H](NC(=O)CNC(=O)[C@H](CCC(=O)O)NC(=O)CNC(=O)[C@@H](N)Cc1ccc(O)cc1)[C@@H](C)O)[C@@H](C)CC)C(=O)N[C@@H](C)C(=O)N[C@@H](CCSC)C(=O)N[C@@H](CC(=O)O)C(=O)N[C@@H](CCCCN)C(=O)N[C@H](C(=O)N[C@@H](Cc1c[nH]cn1)C(=O)N[C@@H](CCC(N)=O)C(=O)N[C@@H](CCC(N)=O)C(=O)N[C@@H](CC(=O)O)C(=O)N[C@@H](Cc1ccccc1)C(=O)N[C@H](C(=O)N[C@@H](CC(N)=O)C(=O)N[C@@H](Cc1c[nH]c2ccccc12)C(=O)N[C@@H](CC(C)C)C(=O)N[C@@H](CC(C)C)C(=O)N[C@@H](C)C(=O)N[C@@H](CCC(N)=O)C(=O)N[C@@H](CCCCN)C(=O)O)C(C)C)[C@@H](C)CC [G^2GIP1-30]
half-life [2]: 150 min

CC[C@H](C)[C@H](NC(=O)[C@H](CO)NC(=O)[C@H](Cc1ccc(O)cc1)NC(=O)[C@H](CC(=O)O)NC(=O)[C@H](CO)NC(=O)[C@@H](NC(=O)[C@H](Cc1ccccc1)NC(=O)[C@@H](NC(=O)CNC(=O)[C@H](CCC(=O)O)NC(=O)[C@H](CO)NC(=O)[C@@H](N)Cc1ccc(O)cc1)[C@@H](C)O)[C@@H](C)CC)C(=O)N[C@@H](C)C(=O)N[C@@H](CCSC)C(=O)N[C@@H](CC(=O)O)C(=O)N[C@@H](CCCCN)C(=O)N[C@H](C(=O)N[C@@H](Cc1c[nH]cn1)C(=O)N[C@@H](CCC(N)=O)C(=O)N[C@@H](CCC(N)=O)C(=O)N[C@@H](CC(=O)O)C(=O)N[C@@H](Cc1ccccc1)C(=O)N[C@H](C(=O)N[C@@H](CC(N)=O)C(=O)N[C@@H](Cc1c[nH]c2ccccc12)C(=O)N[C@@H](CC(C)C)C(=O)N[C@@H](CC(C)C)C(=O)N[C@@H](C)C(=O)N[C@@H](CCC(N)=O)C(=O)N[C@@H](CCCCN)C(=O)O)C(C)C)[C@@H](C)CC [S^2GIP1-30]
half-life [2]: 137 min

C[C@@H](O)[C@H](N)C(=O)N[C@@H](Cc1ccccc1)C(=O)N[C@H](C(=O)N[C@@H](CO)C(=O)N[C@@H](CC(=O)O)C(=O)N[C@@H](Cc1ccc(O)cc1)C(=O)O)[C@@H](C)O [TFTSDY] (H-TFTSDY-OH; N-terminus and C-terminus assumed)
pKi ([3]; substrate GIP): 4.85 | pKi ([3]; substrate PACAP-27): 4.57 | pKi ([3]; substrate PACAP-38): 5.55 | pKi ([3]; substrate glucagon): 5.43 | pKi ([4]; substrate GIP): 4.18 | pKi ([4]; substrate GLP-1): 4.86 | pKi ([4]; substrate NPY): 4.76 | pKi ([4]; substrate RANTES1-15): ≤ 1.91 | pKi ([4]; substrate glucagon): 5.17 | influence on affinity of oligopeptides such as GIP, VIP, glucagon ([5]; DP IV preincubated with TFTSDY): considerably reduced | influence on binding and hydrolysis of small dipeptide substrates ([5]; DP IV preincubated with TFTSDY): only slightly influenced | effect on truncation of substrate by DP IV ([5]; substrate Rantes1-15, 160 μM TFTSDY): No differences

CC(C)[C@H](NC(=O)[C@@H](N)Cc1ccc(O)cc1)C(=O)N[C@@H](CCC(=O)O)C(=O)NCC(=O)N[C@H](C(=O)N[C@@H](Cc1ccccc1)C(=O)O)[C@@H](C)O [V^2GIP1-6] (H-YVEGTF-OH)
half-life [1]: no degradation

CC[C@H](C)[C@H](NC(=O)[C@H](CO)NC(=O)[C@H](Cc1ccc(O)cc1)NC(=O)[C@H](CC(=O)O)NC(=O)[C@H](CO)NC(=O)[C@@H](NC(=O)[C@H](Cc1ccccc1)NC(=O)[C@@H](NC(=O)CNC(=O)[C@H](CCC(=O)O)NC(=O)[C@@H](NC(=O)[C@@H](N)Cc1ccc(O)cc1)C(C)C)[C@@H](C)O)[C@@H](C)CC)C(=O)N[C@@H](C)C(=O)N[C@@H](CCSC)C(=O)N[C@@H](CC(=O)O)C(=O)N[C@@H](CCCCN)C(=O)N[C@H](C(=O)N[C@@H](Cc1c[nH]cn1)C(=O)N[C@@H](CCC(N)=O)C(=O)N[C@@H](CCC(N)=O)C(=O)N[C@@H](CC(=O)O)C(=O)N[C@@H](Cc1ccccc1)C(=O)N[C@H](C(=O)N[C@@H](CC(N)=O)C(=O)N[C@@H](Cc1c[nH]c2ccccc12)C(=O)N[C@@H](CC(C)C)C(=O)N[C@@H](CC(C)C)C(=O)N[C@@H](C)C(=O)N[C@@H](CCC(N)=O)C(=O)N[C@@H](CCCCN)C(=O)O)C(C)C)[C@@H](C)CC [V^2GIP1-30]
half-life [2]: 298 min

C[C@H](NC(=O)[C@@H](N)Cc1ccc(O)cc1)C(=O)N[C@@H](CCC(=O)O)C(=O)N[C@@H](CO)C(=O)N[C@H](C(=O)N[C@@H](Cc1ccccc1)C(N)=O)[C@@H](C)O [YAESTF amide] (H-YAESTF-NH2; N-terminus assumed)
pKi ([6]; read-out: Ki): 5.94 | pKi ([7]; read-out: Ki): 5.97

Glucagon (1-14): glucagon fragment 1-14 (HSQGTFTSDYSKYL; Glucagon; UniProt P01275 53-66, looked up, fragment) [reference compound]
Ki [6]: no inhibition | Ki [7]: no inhibition | Ki [8]: no inhibition
